Assay results: patent publication EP0162545A2, “Enhanced bioconversion processes” (BETZ EUROPE, INC., priority 1984, dated 1985)

Experiments:
Format in all cases: cell-based
[1] = test system: Klebsiella pneumoniae; assay: microbe, parasite or virus in culture
Protocol: The first series of experiments involved the measurement of the amount of C02 evolved from aerobically growing cultures of the representative organism Klebsiella in the presence and absence of uncoupling agents. The known uncouplers 2, 4 dinitrophenol (DNP) and carbonyl cyanide m-chlorophenyl hydrazone (CCCP) were tested along with bis (tricholoromethyl) sulfone (TCMS) and beta-bromo-beta-nitrostyrene (BNS). It can be seen from the data that CCCP caused large increases in C02 evolution over the untreated controls at all concentrations used, with the largest increase (29%) at 5 µg/mL (24.4 uM). […] Bacterial counts also reflected the lack of uncoupling activity. […] Largest increase in C02 blowoff came at 50 ppm (32%). BNS gave a mixed pattern as opposed to those of DNP and CCCP. […] Even at 10 µg/mL, the bacterial count was reduced ~ 50% while still giving greater C02 blowoff than control cultures.
The procedure utilized to perform the first series of experiments was as follows: • Sealed vials containing 8 mL of minimal salts medium (Composition: K2HPO4-39, KH2PO4-lg, MgSO4-0.2g, (NN4)2SO4^-1g, D-glucose-5g (optional) in 1 liter. Autoclave and adjust pH to 6.8) lacking any carbon source were each injected with 1 mL of a suspension of Klebsiella pneumoniae. (Klebsiella was grown overnight, shaken at 37°C, in minimal salts medium containing glucose to a heavy cell suspension. The cells were centrifuged at 10,000 g and resuspended to a turbidity of 150 Klett units [Klett-Summerson photometer, #42 blue filter) in minimal salts medium [MSM], no glucose. These cells were again centrifuged, and resuspended in MSM at 1/10 the volume used previously. This 10X cell suspension was used as the standard inoculum for the vials.) The vials were- simultaneously injected with 1 mL of a 1 µ Ci/mL solution of ^14C-U-D glucose and the appropriate concentration of material to be tested. The compounds tested were fed at concentrations of […]. Controls received no test material and all vials were shaken during the course of the experiments at 37°C. Vials were read for C02 blowoff at the times indicated on the appropriate Tables. Standard bacterial counts were done on each vial after the end of each experimental series. [formula] [formula] [formula] [formula]

[2] = test system: Klebsiella; assay: microbe, parasite or virus in culture
Protocol: These patterns were the results of Klebsiella cultures having been grown on glucose (^14C-label). In nature, and in waste treatment facilities, many organic carbon compounds, both simple and complex, would be available for degradation. The known uncouplers and BNS were tested for their ability to increase C02 evolution from cultures exposed to the common substrates lactate, glycine, glycerol, and a denatured protein mixture. […] This was expected in the case of glycine but it was thought that a more complex protein might be degraded and portions used for some energyproduction. It was hoped that these compounds might be a more representative group (more abundant in waste treatment) than simple sugars for determining the extent of activity of BNS. […] Lactate, a common intermediate in microbial metabolism, and a compound which would normally be used as an oxidizable substrate for running the cytochrome chain, gave a more representative response. BNS treated cultures gave increased C02 blowoff (an increase as high as 130% at 5 µg/mL) as did both known uncouplers. […] When glycerol was used as the labeled substrate, BNS treated cultures gave increased C02 at concentrations up to 5 µg/mL.
The procedure used for determining the CO2 evolution was similar to the procedure described previously. Cells having been grown overnight in MSM and glucose were centrifuged and resuspended in MSM + glucose (cold) and used as inoculum. No other cold carbon source (unlabeled) was added. ^14C-labeled substrates (lactate, glycerol, etc.) obtained from New England Nuclear were used and supplied the radiolabeled carbon for the detection of ^14CO2. BNS was utilized in concentrations of 0.5 - 10 µg/mL. Fixed concentrations of 5 µg/mL CCCP and DNP were included for comparative purposes. The following data were obtained in these experiments.

[3] = test system: Klebsiella
Protocol: Experiments to look at the above conclusions in depth were performed. In these experiments, cultures of Klebsiella were challenged with various concentrations of BNS and the effects on C02 evolution from glucose, viability, TOC (Total Organic Carbon), TIC (Total Inorganic Carbon) production, removal, and DO (Dissolved Oxygen) removal were determined. Concentrations of BNS from 0.05 to 100 µg/mL were used. […] CO2 evolution decreased after 5 gg/mL. […] The viability dropped off after that with 99% inhibition at concentrations somewhere between 10 - 20 µg/mL. Organic carbon removal gave the most puzzling pattern. […] CO2 was produced, however, as reflected by the C02 blowoff experiments and the TIC data. The organic carbon being oxidized (removed) must have been cancelled out by an organic carbon addition caused by limited bacterial lysis. This phenomenon was investigated again. […] It appeared that 5 ppm BNS would be the maximum concentration that could be used for the desired effect, with the majority of favorable results occurring in the 0.05 - 2 ppm range.
At 0.05 µg/mL level, TOC removal was equivalent to the untreated control. When BNS concentrations of 0.5 µg/mL were used, TOC removal ceased and in the second series of experiments, TOC levels increased sharply at 0.5 - 2 µg/mL concentrations of BNS. Similar results were obtained when BNS was used to treat bacteria growing in the glucose salts medium. No increases in TOC removal were seen. The TOC concentration increased rapidly at BNS concentration of 0.5 - 2 ppm only to fall back to control levels at 5 ppm. The cells then added TOC to the medium again from 5 - 1000 µg/mL concentrations of BNS. […]
The experiments coordinating the measurements of C02 evolution, TOC reduction, viable count, and dissolved oxygen (DO) reduction were performed as follows: C02 evolution by Klebsiella was measured as described previously using a narrowed set of BNS concentrations. […] These cells were used to inoculate 19 mL quantities of fresh nutrient broth (1 mL inoculum) in baffled shake flasks. […]

O=[N+]([O-])C(Br)=Cc1ccccc1 [BNS, beta-bromo-beta-nitrostyrene]
concentrations at which toxic properties become evident [1]: > 5.0 µg/mL | activation at 1 µg/mL ([1]; Klebsiella pneumoniae, 1.0 µ/mL, 14C-glucose, read-out: largest increase in C02 blowoff): 13% | activation at 5 µg/mL ([2]; Klebsiella, 14C-lactate as labeled substrate, 5 µg/mL, read-out: increase in C02 blowoff): 130% | concentrations giving increased C02 ([2]; glycerol as the labeled substrate): up to 5 µg/mL | effect on CO2 evolution ([2]; glycine as the labeled substrate): either no effect or a toxic effect | concentration for 99% inhibition of viability [3]: 10 to 20 µg/mL | concentrations at which cells retained viability equal to the control level [3]: up to 2 µg/mL | concentrations of significant toxicity [3]: 5 to 10 µg/mL
